Counter-ions that a name gives are not always drawn. Like-named read-outs stand apart in the source and are kept apart here.
Legend:
[1] = in vivo, metabolite of fasudil; cited from earlier work
[2] = test system: humans (AD); settings: cited from earlier work
[3] = test system: patients with Alzheimer's Dementia (AD) and frontotemporal dementia (FTD); assay: clinical trial of oral fasudil on frequency of wandering (Example 1); assay type: in vivo, human
Source text: Twenty patients, 10 with AD and 10 with FTD and an MMSE score ≤23, who are characterized wanderers, are enrolled into the study and observed for 2 weeks to confirm wandering behavior. […] The double-blind phase is followed by another treatment period of 6 weeks with the opposite treatment assignment (placebo or test drug taken with food).
The following inclusion criteria are applied:
1. Patients 50 years to 90 years of age.
2. Diagnosis of dementia (AD or VaD or mixed type) for at least 6 months.
3. For entering observation period and for entering open label treatment period: Wanders:
• a. Walks distinctly more than average as others of same age and ability AND/OR • b. Elopement behavior ≥3×per week in the opinion of the investigator For entering first double-blind treatment period: Wanders: • a. Walks less than half the mean distance measured in observation period AND/OR • b. Elopement behavior <1× per week in the opinion of the investigator AND/OR • c. Wandering has improved in the opinion of the Investigator. 4. For entering observation period and for entering open label treatment period: • a. MMSE between 10 and 25.
Wandering is measured in term of time in motion and distance traveled (measures of persistent wandering), attempted and successful boundary transgressions (measures of elopement) and patterns like pacing a lapping (indicative of persistent wandering and/or agitation or anxiety) using an electronic tracking device. A typical tracking device would use a combination of accelerometry with positioning, using technology like RFID or Bluetooth in an indoor environment and GPS outdoors. Other wayfinding, orientation and memory-associated wandering incidents are observed and recorded manually.
Wandering is measured in term of time in motion and attempted successful boundary transgression using an electronic tracking device. Other wayfinding, orientation and memory-associated wandering incidents are observed and recorded manually.
The Mini Mental State Exam (MMSE), Woolsey Wandering Questionnaire and Revised Algase Wandering Scale are administered at baseline and at the end of each treatment period. Any change in the use of antipsychotics or anxiolytics that could affect movement during the study is strongly discouraged.

[4] = test system: triple transgenic mice; settings: 10 or 12 months of age, administered in water at 30 mg/kg and 100 mg/kg; cited from earlier work
[5] = test system: patients with wandering due to VaD; settings: cited from earlier work
[6] = test system: APP/PS1 transgenic mice; settings: 5 and 10 mg/kg/day intraperitoneally; cited from earlier work
[7] = test system: triple transgenic mouse model (APP Swedish, MAPT P301L, and PSEN1 M146V); settings: 10 mg/kg/day intraperitoneally; cited from earlier work
[8] = test system: streptozotocin rats; settings: intraperitoneally; cited from earlier work
[9] = on drug as compared to placebo, 90 mg/day (30 mg TID)

O=S(=O)(c1cccc2c(O)nccc12)N1CCCNCC1 [M3]
half-life [1]: about 8 hours

O=c1ncn2nc(Sc3ccc(F)cc3F)ccc2c1-c1c(Cl)cccc1Cl [Neflamapimod]
primary endpoint of improving episodic memory ([2]; Phase 2): failed | tau in the cerebrospinal fluid ([2]; Phase 2): reducing tau | Aβ deposition ([2]; humans): no effect

O=S(=O)(c1cccc2cnccc12)N1CCCNCC1 [fasudil, Hexahydro-1-(5-isoquinolinesulfonyl)-1H-1,4-diazepine monohydrochloride hemihydrate]
wandering ([3]; 90 mg/day (30 mg TID) oral, 6 weeks, AD and FTD patients): significant reduction in wandering | mean increase in MMSE score, persistent wanderers [3, 9]: greater than 3 points | reduction of activity levels in persistent wanderers [3, 9]: about 50% | wayfinding errors and other problematic behaviors in sporadic wanderers ([3]; while on drug, 90 mg/day (30 mg TID)): significant reduction | spatial memory [4]: did not observe improvements | wandering symptoms ([5]; patient with Binswanger-type cerebral infarction, within weeks of beginning treatment): wandering symptoms disappeared | wandering symptoms ([5]; patient with sequelae of cerebral bleeding and multiple lacunar infarctions): Wandering symptoms disappeared quickly | latency distance and quadrant time in the Morris water maze [6]: improved | ß-amyloid plaques in vivo [7]: reduce ß-amyloid plaques | latency distance and quadrant time in the Morris water maze [8]: improved
